Data on three molecules can be found in article PMC9243782 (Aaps Open, 2022).

In general, half-life refers to the time needed for the level to fall by half in the phase considered. Read a low half-life as rapid decline. As usually defined, the AUC is concentration integrated over time.

A short description of data set [1]: First in human single ascending dose and food effect PK study of JOTROL, plasma. The settings on record: for Tmax / AUC(0-t) / half-life / AUC(0-inf) / k el / Cmax: both, human; for AUC(0-inf): AUC0-inf; for k el: Kel. How it is done: A total of 24 healthy, adult male or female volunteers were included in study part 1. […] A food effect arm was also included as part 2. […] Given that the in life portion of the study was done during the pandemic, total number, gender, ethnicity, etc., of the subjects was not mandated. A total of 4 study periods were included in this study with washout of at least 14 days between doses. […] After the completion of each cohort, an evaluation of the safety data was performed prior to determining whether to proceed with enrollment for the next scheduled dose level, to modify the dose, or to discontinue the study. […] The aliquots were transferred to a - 80 °C freezer (no more than 60 min passed between the start of centrifugation and aliquot storage), pending analysis/shipment to the analytical facility. […] Samples are extracted by a protein precipitation extraction procedure, and the compounds are detected and quantified by tandem mass spectrometry in positive ion mode on an MDS Sciex API 6500+ equipped with a Turbo Ionspray® interface. […] All concentration values that were below the lower limit of quantification (BLQ) occurring prior to dosing as well as samples with no reportable value (NRV) occurring prior to dosing were replaced by “0.00”; otherwise, they (BLQ and NRV) were set to missing for tabulation, graphical representation, and calculation purposes. PK analyses were performed using Phoenix WinNonlin® version 8.2, which was validated by Syneos Health. The WinNonlin noncompartmental analysis (NCA) module was used [NT]0-t (last detectable concentration), AUC0-inf (infinity), residual area (%), Cmax, Tmax, T1/2 el (elimination half-life), and Kel (elimination rate constant). […] Power model included the PK parameter as the response variable and dose (mg) as the explanatory variable. For this model, the variable dose was treated as a continuous variable. For evaluation of the food-effect, PK data (ln-transformed AUC0-t, AUC0-inf, Cmax and untransformed Tmax) reported under fed conditions (Period 4) and under fasting conditions (for the same dose level) were compared using analysis of variance (ANOVA) from SAS®. The ratio (fed/fasting) and 90% geometric CI were also calculated for AUC0-t, AUC0-inf, and Cmax.

Data set [2] is described as follows: First in human PK study of JOTROL, urine excretion. It is filed as in vivo. The settings on record: for CL renal: human, urine. As for the experimental part: For day 2 (24 h post-dose) urine collection, subjects were asked to void their bladder within 15 min before the end of the collection interval (12–24 h). For other collections, subjects were asked to void their bladder within 10 min before the end of each collection interval. Urine voided at the intersection of two intervals was included in the earlier interval. Any urine voided by subjects but not collected was documented.
The volume of urine collected in each interval was measured (individual urine volumes are on file), and two aliquots of equal volume were dispensed into polypropylene tubes for each interval. Aliquots were stored in a − 80 °C freezer, pending analysis; remaining urine from each subject was discarded.

The conditions of data set [3]: cited from earlier work.
[4] abbreviates: plasma, po, 200 mg, resveratrol in plasma, mean, Treatment A: JOTROL 200 mg single oral dose, fasting.
[5] abbreviates: plasma, po, 500 mg, resveratrol in plasma, mean, Treatment B: JOTROL 500 mg single oral dose, fasting.
Where [6] appears, read: plasma, po, 500 mg, resveratrol in plasma, mean, Treatment D: JOTROL 500 mg single oral dose, fed (high-fat meal).
Where [7] appears, read: plasma, po, 700 mg, resveratrol in plasma, mean, Treatment C: JOTROL 700 mg single oral dose, fasting.
[8] abbreviates: 500 mg caplets, 5 g, mean ± SD, ref Boocock et al. ([2007]).
Where [9] appears, read: 500 mg caplets, 5 g, mean ± SD, ref Brown et al. ([2010]).
The mark [10] stands for this setting: Friedreich's ataxia study, ref Yiu et al. ([2015]).

Like-named read-outs stand apart in the source and are kept apart here. A value given as a limit tells only on which side of the number the result lay.

In the case of `Oc1ccc(/C=C/c2cc(O)cc(O)c2)cc1` [Resveratrol, 3,5,4′-stilbenotriol], the “Delay of the peak concentration by food” value in data set [1] (JOTROL 500 mg fed vs fasting) is “approximately 30 min”. In addition, in data set [1] (JOTROL 200, 500, 700 mg fasting), the “Dose proportionality of AUC0-t and Cmax (power model)” value is reported as “higher than expected if dose proportional”. Further, the “Gender differences in the exposure of resveratrol” value in data set [1] (all JOTROL doses, p = 0.011) is listed as “mean female AUC values tend to be higher than male values”. The Tmax in data set [1] (in vivo, po, 500 mg) was 1 h; in data set [1] (plasma, oral), approximately 1 h; in data set [1] (plasma, po, 200 mg), 0.999 h; in data set [1] (plasma, po, 700 mg) it was 1.02 h. Further, the AUC(0-t) was 149 to 886 ng·h/mL in data set [1] (plasma, oral, Mean AUC0-t, range over doses, resveratrol in plasma, JOTROL 200 to 700 mg, fasting); 149 ng·h/mL in data set [1] (plasma, po, 200 mg, AUC0-t, resveratrol in plasma, mean, Treatment A: JOTROL 200 mg single oral dose, fasting); 480 ng·h/mL in data set [1] (plasma, po, 500 mg, AUC0-t, resveratrol in plasma, mean, Treatment B: JOTROL 500 mg single oral dose, fasting); 306 ng·h/mL in data set [1] (plasma, po, 500 mg, AUC0-t, resveratrol in plasma, mean, Treatment D: JOTROL 500 mg single oral dose, fed (high-fat meal)); 886 ng·h/mL in data set [1] (plasma, po, 700 mg, AUC0-t, resveratrol in plasma, mean, Treatment C: JOTROL 700 mg single oral dose, fasting). The half-life is approximately 2 h in data set [1] (plasma, oral, T½, resveratrol in plasma after JOTROL, N low, interpret with caution); 1.26 h in data set [1] (plasma, po, 200 mg, T1/2 el, resveratrol in plasma, mean, Treatment A: JOTROL 200 mg single oral dose, fasting); 2.74 h in data set [1] (plasma, po, 500 mg, T1/2 el, resveratrol in plasma, mean, Treatment B: JOTROL 500 mg single oral dose, fasting); 1.71 h in data set [1] (plasma, po, 500 mg, T1/2 el, resveratrol in plasma, mean, Treatment D: JOTROL 500 mg single oral dose, fed (high-fat meal)); 1.6 h in data set [1] (plasma, po, 700 mg, T1/2 el, resveratrol in plasma, mean, Treatment C: JOTROL 700 mg single oral dose, fasting). For the same molecule, the AUC(0-inf) in data set [1] (setting [4]) came out at 215 ng·h/mL; in data set [1] (setting [5]), 574 ng·h/mL; in data set [1] (setting [6]) it was 613 ng·h/mL; in data set [1] (setting [7]), 611 ng·h/mL. In addition, the k el in data set [1] (setting [4]) was 0.000153 s⁻¹; in data set [1] (setting [5]) it was 9.22e-05 s⁻¹; in data set [1] (setting [6]) it was 0.000152 s⁻¹; in data set [1] (setting [7]) it was 0.000126 s⁻¹. Further, the Cmax is 455 ng/mL in data set [1] (plasma, po, 500 mg, Cmax, resveratrol in plasma, mean, Treatment B: JOTROL 500 mg single oral dose, fasting); 805 ng/mL in data set [1] (plasma, po, 700 mg, Cmax, resveratrol in plasma, mean, Treatment C: JOTROL 700 mg single oral dose, fasting); less than 5 ng/mL in data set [3] (25 mg (overnight fast +3 h), radiolabeled dose, ref Walle et al. ([2004])); 538 ± 391 ng/mL in data set [3] (setting [8]); 967 ± 517 ng/mL in data set [3] (setting [9]); 85 ng/mL in data set [3] (1 g encapsulated dose, ref Turner et al., Neurology 85:1383-91, 2015). In addition, the Cmax in data set [3] (2 g, 500 mg encapsulated, mean ± SD, ref Turner et al. ([2015])) is 85 ± 184 ng/mL; in data set [3] (2.5 g micronized dose, ref Howells et al., Cancer Prev Res (Phila) 4:1419-1425, 2011), 1942 ng/mL. Moreover, in data set [1] (resveratrol in plasma, mean, Treatment D: JOTROL 500 mg single oral dose, fed (high-fat meal)), the “Residual Area” value stood at 3.7%. Moreover, the CL renal in data set [2] (oral, resveratrol after JOTROL 200 to 700 mg, read-out: Renal clearance, range over treatments) was 2.33 to 4.17 mL/min; in data set [2] (oral, resveratrol after JOTROL, conversion of 0.14 to 0.25 L/h, read-out: Renal clearance), approximately 4 mL/min; in data set [2] (po, 200 mg, resveratrol renal clearance, mean, Treatment A: JOTROL 200 mg single oral dose, fasting, read-out: CLR (converted)), 4.17 mL/min; in data set [2] (po, 500 mg, resveratrol renal clearance, mean, Treatment B: JOTROL 500 mg single oral dose, fasting, read-out: CLR (converted)), 2.33 mL/min; in data set [2] (po, 700 mg, resveratrol renal clearance, mean, Treatment C: JOTROL 700 mg single oral dose, fasting, read-out: CLR (converted)), 3.17 mL/min. Besides, in data set [2] (resveratrol after JOTROL), the “Renal clearance as share of GFR” value is 3 % of GFR. The TRmax in data set [2] (resveratrol in urine, mean, Treatment A: JOTROL 200 mg single oral dose, fasting) came out at 1.5 h. In addition, the area under the curve (AUC) in data set [3] (500 mg caplets, 5 g, AUC to infinity, mean ± SD, ref Boocock et al. ([2007])) is 1319 ± 780 ng·h/mL; in data set [3] (setting [9]) it was 4097 ± 4384 ng·h/mL. The t1/2 in data set [3] (setting [8]) was 8.5 ± 8.2 h; in data set [3] (setting [9]), 7.85 ± 1.97 h; in data set [3] (2 g, 500 mg encapsulated, ref Turner et al. ([2015])) it was 15 h. In addition, in data set [3] (3,000 mg/day of unmodified resveratrol, healthy volunteers, ref published data), the “AUC exposure (estimated)” value is 2100 ng·h/mL. The “Plasma Cmax associated with positive biomarker outcomes (amyloid beta, inflammation modulators)” value in data set [3] (Alzheimer's trial, ref Turner et al. [2015], Moussa et al. [2017], Sawda et al. [2017]) is 85 ng/mL. The “Nominal mean plasma Cmax not associated with any efficacy” value in data set [3] (setting [10]) is 128 ng/mL. In addition, the “Nominal plasma mean Cmax associated with positive clinical outcomes” value in data set [3] (setting [10]) was 261 ng/mL.
As to `Oc1ccc(/C=C/c2cc(O)cc(O)c2)cc1` [micronized resveratrol], in data set [3] (human, in vivo, po), the Absorption is ~ 70%.
Regarding `O=S(=O)(O)Oc1cc(O)cc(C=Cc2ccc(O)cc2)c1` [resveratrol-3-sulfate], the “Effect of food consumption on metabolite concentrations” value in data set [1] (JOTROL 500 mg fed vs fasting) is on record as “significantly decreased”. The AUC(0-t) in data set [1] (plasma, oral, Mean AUC0-t, range over doses, metabolite in plasma, increasing JOTROL (resveratrol) doses) is 12000 to 54500 ng·h/mL. Further, the Cmax in data set [1] (plasma, oral, Mean Cmax, range over doses, metabolite in plasma, increasing JOTROL (resveratrol) doses) lay within 6620 to 23600 ng/mL.
